Assay results from patent US9408926B2, “KDR and VEGF/KDR binding peptides and their use in diagnosis and therapy” (Bracco Suisse S.A., priority 2002, dated 2016).

Columns and labels:
[1] = molecular target: KDR/VEGF complex on KDR-transfected 293H cells (Homo sapiens, UniProt P35968)
Description: Another stock solution was prepared in the same manner, but lacking VEGF. […] The mixtures were incubated on a rotator at 4 C for 60 minutes, followed by addition of 50 μL of soft release avidin-sepharose (50% slurry in ddH2O) to remove excess peptides and another incubation for 30 minutes on a rotator at 4 C. Finally, the soft release avidin-sepharose was pelleted by centrifuging at 12,000 rpm for 5 minutes at room temperature, and the resulting supernatants were used for the assays.
This establishes a utility for the assay as useful for targeting the KDR/VEGF complex in vitro and in vivo for diagnostic or therapeutic purposes.

[2] = test system: VEGF-induced peritoneal vascular permeability; assay: Blocking VEGF-enhanced peritoneal vascular permeability (Evan's Blue); type: in vivo, mice; settings: 20 μM with […] VEGF165 i.p.
Description: Male balb/c nu/nu mice were injected intraperitoneally with 2 mL vehicle (1% bovine serum albumin in 95% saline/5% DMSO), vehicle+1.2 nM VEGF165, or vehicle+1.2 nM VEGF165+20 μM D10. Immediately after, the mice were injected with Evan's Blue Dye (0.5% in saline, 4 mL/kg) i.v. via their tail veins. After 60 min, mice were sacrificed by CO2 asphyxiation and the peritoneal fluid was retrieved. After centrifuging the samples briefly, the absorbance at 590 nm was measured for each.

[3] = test system: VEGF-induced migration of HUVECs; assay: VEGF-induced HUVEC migration assay; type: cell-based, human
Description: After 22 hours, quantitation of cell migration/invasion was achieved by post-labeling cells in the insert plates with a fluorescent dye and measuring the fluorescence of the invading/migrating cells in a fluorescent plate reader. The VEGF-induced migration was calculated by subtracting the migration that occurred when only basal medium was placed in the lower chamber of the wells.
Serum-starved HUVECs were placed, 100,000 cells per well, into the upper chambers of BD fibronectin-coated FluoroBlok 24-well insert plates. […] After 22 hours, quantitation of cell migration/invasion was achieved by post-labeling cells in the insert plates with a fluorescent dye and measuring the fluorescence of the invading/migrating cells in a fluorescent plate reader. The VEGF-induced migration was calculated for each experimental condition by subtracting the amount of migration that occurred when only basal medium was added to the lower chamber of the wells.
Serum-starved HUVECs were placed, 100,000 cells per well, into the upper chambers of BD fibronectin-coated FluoroBlok 24-well insert plates. […] After 22 hours, quantitation of cell migration/invasion was achieved by post-labeling cells in the insert plates with a fluorescent dye and measuring the fluorescence of the invading/migrating cells in a fluorescent plate reader. VEGF-induced migration was calculated for each experimental condition by subtracting the amount of migration observed in the absence of VEGF.
Serum-starved HUVECs were placed, 100,000 cells per well, into the upper chambers of BD fibronectin-coated FluoroBlok 24-well insert plates. […] After 22 hours, quantitation of cell migration/invasion was achieved by post-labeling cells in the insert plates with a fluorescent dye and measuring the fluorescence of the invading/migrating cells in a fluorescent plate reader. VEGF-stimulated migration was derived by subtracting the basal migration measured in the absence of VEGF.
Serum-starved HUVECs were placed, 100,000 cells per well, into the upper chambers of BD fibronectin-coated FluoroBlok 24-well insert plates. […] After 22 hours, quantitation of cell migration/invasion was achieved by post-labeling cells in the insert plates with a fluorescent dye and measuring the fluorescence of the invading/migrating cells in a fluorescent plate reader.

murine KDR-Fc = molecular target: T1, murine KDR-Fc (Mus musculus, UniProt P35918); assay: BIAcore kinetic analysis of binding to murine KDR-Fc
T1 construct: purchased R & D Systems (Minneapolis, Minn.) 443-KD-050
Description: Three densities of recombinant murine KDR-Fc were cross-linked to the dextran surface of a CM5 sensor chip by the standard amine coupling procedure (0.5 mg/mL solution diluted 1:100 or 1:40 with 50 mM acetate, pH 6.0). Flow cell 1 was activated and then blocked to serve as a reference subtraction.
All samples were injected in duplicate. For association, peptides were injected at 30 μL/min for 3 minutes using the kinject program. Following a 10 minute dissociation, any remaining peptide was stripped from the rmKDR-Fc surface with a quickinject of 50 mM NaOH+1 M NaCl for 12 s at 75 μL/min.
Sensorgrams were analyzed using the simultaneous ka/kd fitting program in the BIAevaluation software 3.1.

KDR [4] = molecular target: T2, KDR (Homo sapiens, UniProt P35968); assay: SPR analysis of dimer affinity for KDR; type: binding
KDR [5] = molecular target: T2, KDR; assay: Inhibition of VEGF-induced KDR receptor activation (phosphorylation) in HUVECs; type: cell-based; design: host or cells: HUVEC
Description: In some cases, a neutralizing anti-KDR antibody (Catalog #AF357, R&D Systems) was used as a positive control inhibitor of activation. In such cases, the antibody was pre-incubated with the test cells for 30 min at 37° C. prior to the addition of fresh medium containing both VEGF and the antibody. After incubating the dishes 5 min. in a 37° C. tissue culture incubator they were washed three times with ice-cold D-PBS containing calcium and magnesium and placed on ice without removing the last 10 mL of Delbecco's phosphate buffered saline (D-PBS). […] Another 0.5 mL of lysis buffer was used to rinse out the first dish then transferred to the second dish, which was then also scraped and dispersed. The pooled lysate from the two dishes was transferred to a 1.5 mL Eppindorf tube. The above procedure was repeated for each of the controls and test samples (KDR-binding peptides), one at a time. The lysates were stored on ice until all the samples had been processed. At this point samples were either stored at −70° C. or processed to the end of the assay without interruption.
The next day 40 μl of protein A-sepharose beads were added to the tubes that were then incubated 4 C for 1 hr. on a rotator. […] After cooling, the beads in each tube were pelleted by centrifuging and the supernatants containing the immunoprecipitated KDR were transferred to new tubes and used immediately or frozen and stored at −70 C for later analysis.
Detection of phosphorylated KDR as well as total KDR in the immunoprecipitates was carried out by immunoblot analysis.
The blots were first probed with an anti-phosphotyrosine antibody (Transduction Labs, Catalog #P11120), diluted 1:200 in 5% Blotto-TBS with 0.1% Tween 20 added for 2 hr. at room temp. […]
After 5 min of treatment, lysates were prepared from each set of dishes. KDR was immunoprecipitated from the lysates was analyzed sequentially by immunoblotting for phosphorylation with an anti-phosphotyrosine antibody, and for total KDR with an anti-KDR antibody (to control for sample loading).

PC3 cell tumors = settings: 500 microcuries of Lu-labeled D13 i.v., 18 days
Description: PC3 cells from ATCC, grown as recommended by the supplier, were injected subcutaneously between the shoulder blades of nude mice. When their tumors reached 100-400 mm^3, twelve mice were injected i.v. with 500 microcuries of Lu-labeled D13 and their growth monitored for an additional 18 days. Mice were sacrificed if they lost 20% or more of their body weight or their tumors exceeded 2000 mm^3. Tumor growth in the treated mice was compared with the average tumor growth in 37 untreated nude mice implanted with PC3 tumors.

[6] = vs. 2700RU murine KDR-Fc surface
[7] = vs. 5000RU murine KDR-Fc surface

**Q.** With AGPGPCKGYMPHQCWYMGTGGGK [SEQ ID NO:321] as the substance, how does the “Binding of peptide-125I-neutravidin complex in the presence of VEGF” value ([1]; KDR- versus mock-transfected cells) read?
**A.** specifically bound to KDR-transfected 293H cells

**Q.** And the “Binding of peptide-125I-neutravidin complex in the absence of VEGF” value ([1]; VEGF omitted)?
**A.** not where VEGF was omitted

**Q.** How did the “Block of VEGF-increased dye leakage into the peritoneum” value [2] turn out when “Ac-AGPTWCEDDWYYCWLFGTGGGK (SEQ ID NO:277){[Ac-GDSRVCWEDSWGGEVCFRYDPGGGK (SEQ ID NO:294) (JJ-Glut-NH(CH2)4—(S)—CH(PnAO6-Glut-NH) (C═O—)]—NH2}—NH2 [D10]” was run?
**A.** substantially blocked

**Q.** For “Ac-AGPTWCEDDWYYCWLFGTGGGK (SEQ ID NO:277)[(Biotin-JJK-(O═)C(CH2)3C(═O)-JJ-NH(CH2)4—(S)—CH((Ac-VCWEDSWGGEVCFRYDPGGGK (SEQ ID NO:337))-NH)CONH2]—NH2 [D1]”, which “VEGF-stimulated endothelial cell migration blocked” value ([3]; 5 nM) is on record?
**A.** 84%

**Q.** And the “VEGF-stimulated endothelial cell migration blocked” value ([3]; 25 nM)?
**A.** almost completely blocked

**Q.** What about the “Inhibition of VEGF-stimulated migration” value ([3]; 50 nM) of the same substance?
**A.** completely blocked

**Q.** What about the “Effect on serum-induced migration” value ([3]; serum (5% FBS) used in place of VEGF) of the same substance?
**A.** not significantly diminished

**Q.** What about the “Kd1” value (murine KDR-Fc; [6]) of the same substance?
**A.** 0.0139 s⁻¹

**Q.** What about the “ka1” value (murine KDR-Fc; [6]) of the same substance?
**A.** 794000 M⁻¹ s⁻¹

**Q.** What about the “ka2 (1/RUs)” value (murine KDR-Fc; [6]) of the same substance?
**A.** 3.31E−04 1/RUs

**Q.** What about the “kd2” value (murine KDR-Fc; [6]) of the same substance?
**A.** 0.000596 s⁻¹

**Q.** What about the “Kd1” value (murine KDR-Fc; [7]) of the same substance?
**A.** 0.00888 s⁻¹

**Q.** And the “ka1” value (murine KDR-Fc; [7])?
**A.** 554000 M⁻¹ s⁻¹

**Q.** And the “ka2 (1/RUs)” value (murine KDR-Fc; [7])?
**A.** 1.17E−04 1/RUs

**Q.** What about the “kd2” value (murine KDR-Fc; [7]) of the same substance?
**A.** 0.000457 s⁻¹

**Q.** And the “Fold higher affinity for KDR than D2 (by SPR analysis)” value (KDR [4])?
**A.** 10 fold

**Q.** And the “Fold lower IC50 than D2 in the activation assay” value (KDR [5])?
**A.** at least 100 fold

**Q.** What about the “Block of VEGF-induced phosphorylation of KDR” value (KDR [5]; 1 nM) of the same substance?
**A.** More than half

**Q.** And the “Block of VEGF-induced phosphorylation of KDR” value (KDR [5]; 10 nM)?
**A.** completely block

**Q.** “Ac-AGPTWCEDDWYYCWLFGTGGGK (SEQ ID NO:277){Ac-VCWEDSWGGEVCFRYDPGGGK (SEQ ID NO:337)[JJ-Glut-K(BOA)]—NH2}—NH2 [D13]” was tested. Which “Treated mice with significant or complete tumor growth delay” value (PC3 cell tumors) did it give?
**A.** 6 of the 12
